Data set [1] in a line: Half life was determined. Type of data set: ADME.
Data set [2] relates to Human immunodeficiency virus 1. Kind of data set: Anti-HIV activity was determined. It is filed as functional, organism-based.
Data set [3] relates to CCRF-CEM. Kind of data set: Cytotoxicity against CEM cells. Type of data set: cell-based, Homo sapiens.
In data set [4] the test system is Vero. Kind of data set: (§1) Cytotoxicity against Vero cells was determined. It is filed as cell-based. The settings on record: Chlorocebus sabaeus.
Data set [5] in a line: (§2) Toxicity against human peripheral blood mononuclear (PBM) cells.
Data set [6] is described as follows: Anti-HIV activity against human peripheral blood mononuclear (PBM) cell lines infected with XxBRU Pitt (FTC sensitive isolate). It is filed as functional.
Data set [7] can be described thus: Anti-HIV activity against human peripheral blood mononuclear (PBM) cell lines infected with M184V Pitt (FTC resistant isolate). It is filed as functional.
For data set [8], the system named is CCRF-CEM. Kind of data set: Cytotoxicity against CEM cells was determined. It is filed as functional, cell-based. The settings on record: Homo sapiens.
Data set [9] in a line: as §2. Type of data set: functional.
Data set [10] relates to Vero. Described as §1. It is filed as functional, cell-based. The settings on record: Chlorocebus sabaeus.
Data set [11] can be described thus: Half life at pH 2.0. Type of data set: ADME. As to conditions: buffer.
Where [12] appears, read: human, peripheral blood mononuclear (PBM) cells, IC50.

Structures are written as SMILES. Bounds are passed on as bounds.

We go through 19 compounds from ChEMBL document CHEMBL1135890, “Structure-activity relationships of 2'-fluoro-2',3'-unsaturated D-nucleosides as anti-HIV-1 agents” (J Med Chem, 2002).

With `Nc1ncnc2c1ncn2[C@@H]1O[C@H](CO)[C@@H](O)[C@H]1O` [ADENOSINE], the half-life in data set [1] is 0.417 min.

With `Nc1nc(=O)n([C@@H]2O[C@H](CO)C=C2F)cc1F` (stereo in doubt; 31), the EC50 in data set [2] was over 100 µM.

Consider `Nc1nc(N)c2ncn([C@@H]3O[C@H](CO)C=C3F)c2n1`, for which, in [2] (Human immunodeficiency virus 1), a half-maximal effect (EC50) was put at 3 µM. Also, the concentration for half-maximal inhibition (IC50) was over 100 µM with CCRF-CEM [3] (Homo sapiens, CCRF-CEM); over 100 µM in the data set with Vero [4]; over 100 µM in data set [5] (setting [12]).

The compound `Nc1nc(Cl)c2ncn([C@@H]3O[C@H](CO)C=C3F)c2n1` (stereo in doubt; 13) yielded an EC50 in data set [2] of over 75 µM. In addition, the concentration for half-maximal inhibition (IC50) is 30.2 µM with CCRF-CEM [3] (ccrf-cem), over 100 µM with Vero [4] and 77.4 µM in [5] (setting [12]).

In data set [2], `Nc1ccn([C@@H]2O[C@H](CO)C=C2F)c(=O)n1` (stereo in doubt; 28) displayed a 50% effective concentration (EC50) of 2.6 µM. For the same compound, the values for the IC50 (in the data set with CCRF-CEM [3] (ccrf-cem); in data set [5]) were 35.3 µM and 7.3 µM, respectively.

Compound `Nc1nc(N)c2ncn([C@@H]3O[C@@H](CO)C=C3F)c2n1` gave an EC50 in data set [2] (Human immunodeficiency virus 1) of over 100 µM. Besides, the IC50 in the data set on CCRF-CEM [3] (Homo sapiens, CCRF-CEM) is over 100 µM; in the data set with Vero [4], over 100 µM; in [5] (setting [12]), over 100 µM.

Consider `OC[C@@H]1C=C(F)[C@@H](n2cnc3c(O)ncnc32)O1`, for which, in [2] (Human immunodeficiency virus 1), the EC50 is over 100 µM. Besides, the half-maximal inhibitory concentration (IC50) in the data set with CCRF-CEM [3] (Homo sapiens, CCRF-CEM) is over 100 µM; in the data set with Vero [4], over 100 µM; in [5] (setting [12]) it was over 100 µM.

Regarding `Nc1nc(F)nc2c1ncn2[C@H]1O[C@H](CO)C=C1F`, in data set [2] (Human immunodeficiency virus 1), a half-maximal response (EC50) required 3.97 µM. For the same compound, the 50% inhibitory concentration (IC50) in the data set with CCRF-CEM [3] (Homo sapiens, CCRF-CEM) was 28.3 µM; in the data set with Vero [4] it was 16.1 µM; in data set [5] (setting [12]), 41.2 µM.

Take `Nc1nc(F)nc2c1ncn2[C@@H]1O[C@H](CO)C=C1F`: the EC50 in data set [2] (Human immunodeficiency virus 1) is over 100 µM. The concentration for half-maximal inhibition (IC50) in the data set on CCRF-CEM [3] (Homo sapiens, CCRF-CEM) is over 100 µM; with Vero [4], over 100 µM; in data set [5] (setting [12]), over 100 µM.

Take `Nc1nc(O)c2ncn([C@@H]3O[C@H](CO)C=C3F)c2n1` (stereo in doubt; 19): the response in data set [2] was half-maximal at 18.3 µM (EC50). For the same compound, the half-inhibitory concentration (IC50) in the data set with CCRF-CEM [3] (Homo sapiens, CCRF-CEM) was over 100 µM; with Vero [4], over 100 µM; in [5] (setting [12]), over 100 µM.

In the case of `Cc1cn([C@@H]2O[C@H](CO)C=C2F)c(=O)nc1N`, the EC50 in [2] (Human immunodeficiency virus 1) is over 100 µM. Moreover, the IC50 with CCRF-CEM [3] (Homo sapiens, CCRF-CEM) is over 100 µM; in the data set with Vero [4] it was over 100 µM; in [5] (setting [12]), over 100 µM.

The compound `Nc1nc(Cl)c2ncn([C@@H]3O[C@H](CO)C=C3F)c2n1` (stereo in doubt; 11) displayed an EC50 in [2] of 4.3 µM. In addition, the IC50 is over 100 µM in the data set with CCRF-CEM [3] (ccrf-cem) and 98.8 µM in [5].

In the case of `Nc1nc(=O)n([C@@H]2O[C@H](CO)C=C2F)cc1F` (stereo in doubt; 30), the half-maximal effective concentration (EC50) was 0.82 µM in data set [2], 3.1 µM in data set [6] and 9.61 µM in data set [7]. Besides, the IC50 is over 100 µM with CCRF-CEM [3] (Homo sapiens, CCRF-CEM); over 100 µM in the data set with Vero [4]; over 100 µM in data set [5] (setting [12]).

Consider `Nc1ncnc2c1ncn2[C@@H]1O[C@H](CO)C=C1F` (stereo in doubt; 15), for which, in data set [2], the EC50 is over 100 µM. Besides, the half-maximal inhibitory concentration (IC50) in the data set with CCRF-CEM [3] (Homo sapiens, CCRF-CEM) was over 100 µM; in the data set with Vero [4] it was over 100 µM; in data set [5] (setting [12]) it was over 100 µM.

In the case of `OC[C@@H]1C=C(F)[C@H](n2cnc3c(O)ncnc32)O1`, the results for the EC50 in data set [2] (Human immunodeficiency virus 1), in [6] and in data set [7] were 1 µM, 2.8 µM and 2.5 µM, respectively. Also, the IC50 is over 100 µM with CCRF-CEM [3] (Homo sapiens, CCRF-CEM); 87.7 µM in the data set on Vero [4]; 92.7 µM in data set [5] (setting [12]).

With `Nc1ncnc2c1ncn2[C@@H]1O[C@H](CO)C=C1F` (stereo in doubt; 14), the results for the IC50 (in the data set on CCRF-CEM [8]; in data set [9]; in the data set on Vero [10]) were 57.6 µM, 68.3 µM and over 100 µM, respectively. For the same compound, the concentration for a half-maximal effect (EC50) was 0.44 µM in [2], 0.46 µM in [6] and 0.8 µM in data set [7]. The figures for the half-life in data set [1] and in [11] were 41.6 min and 72 h, respectively.

As for `Cc1cn([C@H]2C[C@H](N=[N+]=[N-])[C@@H](CO)O2)c(=O)[nH]c1=O` [ZIDOVUDINE], the half-maximal effective concentration (EC50) came out at 0.005 µM in [6] and 0.004 µM in data set [7]. For the same compound, the IC50 in [5] (setting [12]) was over 100 µM.

`Nc1ccn([C@@H]2O[C@H](CO)C=C2F)c(=O)n1` (stereo in doubt; 29): the concentration for a half-maximal effect (EC50) in data set [2] was over 100 µM. Moreover, the IC50 (in the data set with CCRF-CEM [3] (ccrf-cem); in the data set on Vero [4]; in [5]) was over 100 µM in each case.

In [7], `Nc1nc(O)c2ncn([C@@H]3O[C@H](CO)C=C3F)c2n1` (stereo in doubt; 18) had a 50% effective concentration (EC50) of 11.2 µM. That is a double-digit micromolar value.
